Data as given in PubChem BioAssay (NCI).
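Step 1: Grow cells in 96-well plates. Step 2: Expose to compound for 48 hours at 5 concentrations. Step 3: Interpolate endpoints linearly; if unreached, use highest concentration. GI50 marks 50% less growth. TGI is the concentration that stops growth completely.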

How the values were obtained:
Assay in all cases: NCI-60 cell line screen, 48 h
NCI-H522 lung = test system: NCI-H522 lung
NCI/ADR-RES ovarian = test system: NCI/ADR-RES ovarian
OVCAR-3 ovarian = test system: OVCAR-3 ovarian
OVCAR-4 ovarian = test system: OVCAR-4 ovarian
OVCAR-5 ovarian = test system: OVCAR-5 ovarian
OVCAR-8 ovarian = test system: OVCAR-8 ovarian
PC-3 prostate = test system: PC-3 prostate
RPMI-8226 leukemia = test system: RPMI-8226 leukemia
RXF 393 renal = test system: RXF 393 renal
SF-268 CNS = test system: SF-268 CNS
SF-295 CNS = test system: SF-295 CNS
SF-539 CNS = test system: SF-539 CNS
SK-MEL-2 melanoma = test system: SK-MEL-2 melanoma
SK-MEL-28 melanoma = test system: SK-MEL-28 melanoma
SK-MEL-5 melanoma = test system: SK-MEL-5 melanoma
SK-OV-3 ovarian = test system: SK-OV-3 ovarian
SN12C renal = test system: SN12C renal
SNB-19 CNS = test system: SNB-19 CNS
SNB-75 CNS = test system: SNB-75 CNS
SW-620 colon = test system: SW-620 colon
T-47D breast = test system: T-47D breast
TK-10 renal = test system: TK-10 renal
U251 CNS = test system: U251 CNS
UACC-257 melanoma = test system: UACC-257 melanoma
UACC-62 melanoma = test system: UACC-62 melanoma
UO-31 renal = test system: UO-31 renal

`CCN1CCN(S(=O)(=O)c2oc(-c3ccc(Cl)cc3)nc2C#N)CC1` gave a GI50 (NCI-H522 lung) of 1.48 µM, a TGI (NCI-H522 lung) of 3.06 µM and a GI50 (NCI/ADR-RES ovarian) of 18.7 µM. It also gave a TGI (NCI/ADR-RES ovarian) of 62.7 µM, a GI50 (OVCAR-3 ovarian) of 1.95 µM and a TGI (OVCAR-3 ovarian) of 3.74 µM. For the same compound, the GI50 (OVCAR-4 ovarian) was 4.04 µM, the TGI (OVCAR-4 ovarian) was 23.4 µM and the GI50 (OVCAR-5 ovarian) was 14.5 µM. The TGI (OVCAR-5 ovarian) was 29.4 µM, the GI50 (OVCAR-8 ovarian) was 12.9 µM and the TGI (OVCAR-8 ovarian) was 27.2 µM. For the same compound, the GI50 (PC-3 prostate) was 13.3 µM, the TGI (PC-3 prostate) was 26.9 µM and the GI50 (RPMI-8226 leukemia) was 3.26 µM. The TGI (RPMI-8226 leukemia) was 13.5 µM, the GI50 (RXF 393 renal) was 1.89 µM and the TGI (RXF 393 renal) was 3.5 µM. It also gave a GI50 (SF-268 CNS) of 11.8 µM, a TGI (SF-268 CNS) of 41.3 µM and a GI50 (SF-295 CNS) of 17.3 µM. It also gave a TGI (SF-295 CNS) of 31.8 µM, a GI50 (SF-539 CNS) of 6.47 µM and a TGI (SF-539 CNS) of 19.8 µM. The GI50 (SK-MEL-2 melanoma) was 14.5 µM, the TGI (SK-MEL-2 melanoma) was 28.3 µM and the GI50 (SK-MEL-28 melanoma) was 3.6 µM. For the same compound, the TGI (SK-MEL-28 melanoma) was 12.3 µM, the GI50 (SK-MEL-5 melanoma) was 15.9 µM and the TGI (SK-MEL-5 melanoma) was 29.6 µM. It also gave a GI50 (SK-OV-3 ovarian) of 18.7 µM, a TGI (SK-OV-3 ovarian) of 36.9 µM and a GI50 (SN12C renal) of 11.4 µM. It also gave a TGI (SN12C renal) of 24.5 µM, a GI50 (SNB-19 CNS) of 15.7 µM and a TGI (SNB-19 CNS) of 29.3 µM. The GI50 (SNB-75 CNS) was 14.1 µM, the TGI (SNB-75 CNS) was 27.4 µM and the GI50 (SW-620 colon) was 1.69 µM. For the same compound, the TGI (SW-620 colon) was 4.17 µM, the GI50 (T-47D breast) was 2.24 µM and the TGI (T-47D breast) was 6.24 µM. For the same compound, the GI50 (TK-10 renal) was 12.8 µM, the TGI (TK-10 renal) was 25.8 µM and the GI50 (U251 CNS) was 14.9 µM. For the same compound, the TGI (U251 CNS) was 30.9 µM, the GI50 (UACC-257 melanoma) was 10.8 µM and the TGI (UACC-257 melanoma) was 23.1 µM. The GI50 (UACC-62 melanoma) was 11.2 µM, the TGI (UACC-62 melanoma) was 24.2 µM and the GI50 (UO-31 renal) was 4.1 µM. It also gave a TGI (UO-31 renal) of 15.9 µM.
